Tests used:
MMPs = test: MMP activity in conditioned media of fibroblasts, SensoLyte 520 generic MMP assay (FRET); assay type: cell-based, human; conditions: 50 μg/ml, 48 hours
Experimental: The activity of MMPs was assessed using a F-FAM/QXL™ 520 fluorescence resonance energy transfer (FRET) peptide as the MMP substrate (SensoLyte 520™ generic MMP assay kit, AnaSpec, Inc.™, Fremont, Calif.) according to the manufacturer's protocol. In brief, cells were treated with or without 50 μg/ml of kynurenine for 48 hours. Conditioned media were collected and incubated with 1 mM of APMA (4-aminophenyl-mercuric acetate, in component C, AnaSpect™) at 37° C. for 3 hrs. After activation MMPs with APMA, 50 μl/well in 96-well plate of conditioned media was mixed with 50 μl of MMP substrate solution. After incubated at room temperature for 60 minutes, the fluorescence intensity at EX/EM=490 nm/520 nm in each sample including the substrate control were measured using Infinite F500™ fluorescence microplate reader (Tecan Group Ltd™, Morrisville, N.C.).

ERK1/2 = test: Human phospho-kinase array in dermal fibroblasts; assay type: cell-based; conditions: 100 μg/ml, after 1 hour of treatment
Experimental: Protein phosphorylation was evaluated using the Human Phospho-Kinase Array™ (R&D System™) according to the manufacturer's instructions. Briefly, capture and control antibodies were spotted in duplicate on nitrocellulose membranes (total 46 kinase phosphorylation sites). Cell lysates (300 μg of total protein per array) were incubated with array overnight. The array was washed to remove unbound proteins, followed by incubation with the cocktail of biotinylated detection antibodies. After incubation with streptavidin-HPR for 30 minutes, signals were visualized by ECL detection system (Santa Cruz™). Blots were analyzed by densitometry, and protein Phosphorylation was Normalized to a Positive Control which was Represented in Each Membrane.

mouse splenocytes = test: Immune factor protein microarray of conditioned media of ConA-activated splenocytes; assay type: cell-based; conditions: 100 μg/mL, 48 hrs
IMR-90 = test: MMP-1 expression in lung fibroblast cell line IMR-90, Western blot; assay type: cell-based, human; conditions: IMR-90, 12.5 μg/ml to 150 μg/ml, 48 hours
Experimental: (§1) The squamous cell carcinoma (UMSCC) cell line derived from patients with head and neck cancer (ATCC™, Manassas, Va.) were maintained in RPMI-1640 medium with 10% FBS. The Human keratinocyte cell line HACAT (ATCC) and the carcinomic human alveolar basal epithelial cell line A549 (ATCC™) were cultured in DMEM with 10% FBS. The diploid lung fibroblasts IMR-90 (ATCC™) were maintained in Minimum Essential Medium (MEM, Invitrogen™) with 10% FBS.
(§2) Similarly, other cells such as synoviocytes, IMR-90, keratinocytes, UMSCC and A549 were treated with kynurenine at concentrations of 12.5 to 150 μg/ml in appropriate media for each cell type as described above for 48 hours. Cells were then harvested for western blot analysis.
(§3) Cells were harvested by Trypsin/EDTA and lysed with cell lysis buffer containing 50 mM Tris-HCl (pH7.40), 150 mM NaCl, 10 mM EDTA, 5 mM EGTA, 1% TritonX-100™, 0.5% Igepal CA-630, 0.025% NaN3 and protease inhibitor cocktail (Sigma™). Cell debris was removed by centrifugation at 20,000×g for 10 minutes. The protein concentration in supernatant was determined using the MicroBCA™ method (Pierce™, Rockford, Ill.). Proteins in supernatant were mixed with protein sample loading buffer (final concentration: 60 mM Tris-HCl (pH 6.80), 2% SDS, 10% glycerol, 1.5% β-mercaptoethanol, 0.002% bromophenol blue) and size fractioned by 10% of SDS-polyacrylamide gel. […]

A549 = test: MMP-1 expression in lung epithelial carcinoma cell line A549, Western blot; assay type: cell-based, human; conditions: A549, 12.5 to 150 μg/ml, 48 hours
Experimental: as §1, §2, §3

type 1 procollagen = test: Type 1 procollagen expression in dermal fibroblasts, Western blot; assay type: cell-based, human; conditions: 25-150 μg/ml, 48 hours
Experimental: Cell debris was removed by centrifugation at 20,000×g for 10 minutes. The protein concentration in supernatant was determined using the MicroBCA™ method (Pierce™, Rockford, Ill.). Proteins in supernatant were mixed with protein sample loading buffer (final concentration: 60 mM Tris-HCl (pH 6.80), 2% SDS, 10% glycerol, 1.5% β-mercaptoethanol, 0.002% bromophenol blue) and size fractioned by 10% of SDS-polyacrylamide gel. After proteins were transferred onto nitrocellulose membrane by iBlot™ (Invitrogen Life Technologies™), non-specific binding were blocked with phosphate buffer saline twenty 20 (PBS-T) containing 5% skim milk for 1 hour. The membrane was then incubated with primary antibody overnight. After incubation with a secondary antibody for 1 hour, protein bands were visualized by an enhanced chemiluminescence (ECL™) detection system (Santa Cruz Biotechnology™, Santa Cruz, Calif.). […] The secondary antibodies were either goat anti-mouse IgG (H+L) HPR conjugate or goat anti-rabbit IgG (H+L) HPR conjugate (Bio-rad Laboratory™ (Mississauga, ON, Canada). Secondary antibodies were used at a concentration of 1:3000.

HACAT = test: MMP-1 expression in keratinocyte cell line HACAT, Western blot; assay type: cell-based, human; conditions: 12.5 to 150 μg/ml, 48 hours
Experimental: as §1, §2, §3

For `Nc1ccccc1C(=O)CC(N)C(=O)O` (racemic) [kynurenine], the “mean activity of MMPs in conditioned media versus control media” value (MMPs) was “significantly higher”, the “ERK1/2 activation (phospho-kinase array)” value (ERK1/2) was “activated” and the IL-17 production (mouse splenocytes) was “significantly decrease”. For the same compound, the “proinflammatory cytokine and chemokine production (IL-1, IL-2, CXCL9, CXCL10)” value (mouse splenocytes) was “immune suppressive effect”, the MMP-1 expression (IMR-90) was “up-regulated” and the “MMP-1 expression versus untreated controls” value (A549) was “did not significantly differ”. For the same compound, the “expression of type 1 procollagen” value (type 1 procollagen) was “remarkably decreases” and the “MMP-1 expression versus untreated controls” value (HACAT) was “did not significantly differ”.

Reference: US9737523B2, “Anti-fibrogenic compounds, methods and uses thereof” (priority 2013, dated 2017)
